Experimental data taken from patent US7285569B2, “Tricycles, their manufacture and use as pharmaceutical agents” (Hoff Hoffmann-La Roche Inc., priority 2004, dated 2007).

Legend:
HCT 116 cells = experiment: CellTiter-Glo assay in HCT 116 cells (antiproliferative activity); assay type: cell-based; conditions: HCT 116 human colon carcinoma cells, 5 days (120 h) incubation, CellTiter-Glo luminescence
Text: Antiproliferative Activity
CellTiter-Glo™ Assay in HCT 116 Cells
The CellTiter-Glo™ Luminescent Cell Viability Assay (Promega) is a homogeneous method of determining the number of viable cells in culture based on quantitation of the ATP present, which signals the presence of metabolically active cells.
HCT 116 cells (human colon carcinoma, ATCC-No. CCI-247) were cultivated in RPMI 1640 medium with GlutaMAX™ I (Invitrogen, Cat-No. 61870-010), 2.5% Fetal Calf Serum (FCS, Sigma Cat-No. F4135 (FBS)); 100 Units/ml penicillin/100 μg/ml streptomycin (=Pen/Strep from Invitrogen Cat. No. 15140). For the assay the cells were seeded in 384 well plates, 1000 cells per well, in the same medium. The next day the test compounds were added in various concentrations ranging from 30 μM to 0.0015 μM (10 concentrations, 1:3 diluted). After 5 days the CellTiter-Glo™ assay was done according to the instructions of the manufacturer (CellTiter-Glo™ Luminescent Cell Viability Assay, from Promega). In brief: the cell-plate was equilibrated to room temperature for approximately 30 minutes and than the CellTiter-Glo™ reagent was added. The contents were carefully mixed for 15 minutes to induce cell lysis. After 45 minutes the luminescent signal was measured in Victor 2, (scanning multiwell spectrophotometer, Wallac).
Medium: RPMI 1640 with GlutaMAX™ I (Invitrogen, Cat-Nr. 61870), 5% FCS (Sigma Cat.-No. F4135), Pen/Strep (Invitrogen, Cat No. 15140).
HCT116 (ATCC-No. CCI-247): 1000 cells in 60 μl per well of 384 well plate (Greiner 781098, μClear-plate white)
After seeding incubate plates 24 h at 37° C., 5% CO2
2nd. Day: Induction (Treatment with Compounds, 10 Concentrations):
In order to achieve a final concentration of 30 μM as highest concentration 3.5 μl of 10 mM compound stock solution were added directly to 163 μl media. Then step e) of the dilution procedure described below, was followed.
In order to achieve the second highest to the lowest concentrations, a serial dilution with dilution steps of 1:3 was followed according to the procedure (a-e) as described here below: • for the second highest concentration add 10 μl of 10 mM stock solution of compound to 20 μl dimethylsulfoxide (DMSO) • dilute 8×1:3 (always 10 μl to 20 μl DMSO) in this DMSO dilution row (results in 9 wells with concentrations from 3333.3 μM to 0.51 μM) • dilute each concentration 1:47.6 (3.5 μl compound dilution to 163 μl media) • add 10 μl of every concentration to 60 μl media in the cell plate resulting in final concentration of DMSO: 0.3% in every well and resulting in 10 final concentration of compounds ranging from 30 μM to 0.0015 μM. • Each compound is tested in triplicate. • Incubate 120 h (5 days) at 37° C., 5% CO2 Analysis:
Add 30 μl CellTiter-Glo™ Reagent (prepared from CellTiter-Glo™ Buffer and CellTiter-Glo™ Substrate (lyophilized) purchased from Promega) per well, • shake 15 minutes at room temperature • incubate further 45 minutes at room temperature without shaking Measurement:
Victor 2 scanning multiwell spectrophotometer (Wallac), Luminescence mode (0.5 sec/read, 477 nm)
Determine IC50 using a non-linear curve fit (XLfit software (ID Business Solution Ltd., Guilford, Surrey, UK))

Aurora A = target: T1, Aurora A (Homo sapiens, UniProt O14965); experiment: IC50 determination for inhibitors of Aurora A (96 MTP-ELISA); assay type: biochemical; conditions: His4-tagged full-length Aurora A 250 ng/ml, PKB-GSK2 200 nM, ATP 4 μM, 90 min at room temperature; read-out: IC50 Aurora A kinase inhibition
T1 construct: C-terminally Histidine4 (His4)-tagged Aurora A full-length protein
T1 sequence (O14965 1-403): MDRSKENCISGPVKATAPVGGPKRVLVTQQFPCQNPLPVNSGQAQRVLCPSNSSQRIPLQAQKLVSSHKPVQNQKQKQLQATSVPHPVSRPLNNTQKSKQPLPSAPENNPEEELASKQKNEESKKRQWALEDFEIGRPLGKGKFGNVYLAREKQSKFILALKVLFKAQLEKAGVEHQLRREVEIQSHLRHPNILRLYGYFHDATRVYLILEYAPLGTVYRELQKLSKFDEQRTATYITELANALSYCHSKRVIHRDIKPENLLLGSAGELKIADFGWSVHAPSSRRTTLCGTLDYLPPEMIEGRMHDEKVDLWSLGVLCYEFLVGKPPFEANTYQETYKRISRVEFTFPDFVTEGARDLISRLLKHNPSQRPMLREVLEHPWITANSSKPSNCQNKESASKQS
Text: IC50 Determination for Inhibitors of Aurora A
Aurora A is a serine threonine kinase involved in spindle assembly and chromosome segregation.
The assay is a typically ELISA-type assay where biotinylated substrate (PKB-GSK2) is phosphorylated. Phosphorylation is detected by peroxidase (POD) labelled polyclonal antibody (PAK<M-Ig>S-IgG-POD) and phosphopeptide monoclonal antibody (Mab) (MAK<P-GSK>M-27E5-IgG). The assay is validated for IC50-determination.
Aurora A-His-4 C-terminally Histidine4 (His4)-tagged Aurora A full-length protein, stock solution 0.7 mg/ml, final conc.: 250 ng/ml
PKB-GSK2 biotinylated peptide derived from human GSK3-alpha sequence (Biotin-SGRARTSSFAEPGG-CONH2), stock solution 600 μM, final conc.: 200 nM
ATP Adenosine-5′-triphosphate 1 mM, diluted in kinase buffer, (Roche Diagnostics GmbH, Cat. No.: 127531-001,), final conc.: 4 μM
Kinase buffer 50 mM TRIS, 10 mM MgCl2, 1 mM DTT, 0.1% Tween 20, pH 7.8
This assay is performed in 96-well format for IC50 determination with 5 samples (each with 8 concentrations by twofold testing), 100 μl incubation volume and the following plate layout:
Step/Action 1. Sample preparation: add 24 μl per well samples (descending sequence) diluted in kinase buffer to assay plate (final conc. for DMSO 1%). 2. Add directly 16 μl Aurora-A-his-4 diluted in kinase buffer to assay plate. 3. Add directly 40 μl per well PKB-GSK2/ATP mixture to assay plate, (final conc.: Aurora A=250 ng/ml, GSK2=200 nM, ATP=4 μM). Negative control: without ATP. 4. Incubate assay plate for exactly 90 min at room temperature. 5. Stop reaction by adding 20 μl EDTA in all wells. 6. Wash assay plate 3× with 200 μl washing buffer per well. 7. Add 100 μl MAK<P-GSK>M27E5-IgG (1:10000) and PAK<M-Ig>S-IgG-POD (1:6000) dissolved in 3% BSA/PBS-T to assay plate per well. 8. Incubate assay plate for 60 min at room temperature. 9. Wash assay plate 3× with 200 μl washing buffer per well 10. Add 100 μl ABTS solution to assay plate per well, incubate for approx. 4 min at RT on MTP shaker. 11. Measure absorption at 405/492 nm. 12. Calculate % inhibition as: (1−(Esample−ENC)/(EPC−ENC))×100 13. Calculate IC50 using a non-linear curve fit (XLfit software (ID Business Solution Ltd., Guilford, Surrey, UK))

| SMILES | IC50 (HCT 116 cells) | IC50 (Aurora A) |
| --- | --- | --- |
| CC(C)Cc1cc(-c2nc3cc4c(cc3[nH]2)N(C)C(=O)C4(C)C)[nH]n1 [Example 16, 2-(5-Isobutyl-2H-pyrazol-3-yl)-5,7,7-trimethyl-5,7-dihydro-3H-imidazo[4,5-f]indol-6-one] | 100 to 10000 nM | – |
| CC1(C)C(=O)Nc2cc3nc(-c4cc[nH]n4)[nH]c3cc21 [Example 20, 7,7-Dimethyl-2-(1H-pyrazol-3-yl)-5,7-dihydro-1H-imidazo[4,5-f]indol-6-one] | 100 to 10000 nM | – |
| CN1C(=O)C(C)(C)c2cc3nc(-c4cc(C(F)(F)F)n[nH]4)[nH]c3cc21 [Example 42, 5,7,7-Trimethyl-2-(5-trifluoromethyl-2H-pyrazol-3-yl)-5,7-dihydro-3H-imidazo[4,5-f]indol-6-one] | 980 nM | – |
| CCCc1cc(-c2nc3cc4c(cc3[nH]2)NC(=O)C42CCCC2)[nH]n1 [Example 29, 2-(5-Propyl-2H-pyrazol-3-yl)-spiro-5,7-dihydro[cyclopentane-1′,7-imidazo[4,5-f]indol]-6(3H)-one] | – | 500 to 1500 nM |
| CN1C(=O)C(C)(C)c2cc3nc(-c4cc[nH]n4)[nH]c3cc21 [Example 30, 5,7,7-Trimethyl-2-(1H-pyrazol-3-yl)-5,7-dihydro-3H-imidazo[4,5-f]indol-6-one] | 100 to 10000 nM | – |
| CCN1C(=O)C(C)(C)c2cc3nc(-c4cc(C)[nH]n4)[nH]c3cc21 [Example 12, 5-Ethyl-7,7-dimethyl-2-(5-methyl-1H-pyrazol-3-yl)-5,7-dihydro-3H-imidazo[4,5-f]indol-6-one] | 100 to 10000 nM | – |
| CCN1C(=O)C(C)(C)c2cc3nc(-c4cc(OC)[nH]n4)[nH]c3cc21 [Example 44, 5-Ethyl-2-(5-methoxy-1H-pyrazol-3-yl)-7,7-dimethyl-5,7-dihydro-3H-imidazo[4,5-f]indol-6-one] | 100 to 10000 nM | – |
| CCN1C(=O)C(C)(C)c2cc3nc(-c4cc(CC(C)C)n[nH]4)[nH]c3cc21 [Example 15, 5-Ethyl-2-(5-isobutyl-2H-pyrazol-3-yl)-7,7-dimethyl-5,7-dihydro-3H-imidazo[4,5-f]indol-6-one] | 100 to 10000 nM | – |
| CC(C)Cc1cc(-c2nc3cc4c(cc3[nH]2)NC(=O)C42CCCC2)[nH]n1 [Example 8, 2-(5-Isobutyl-2H-pyrazol-3-yl)-spiro-5,7-dihydro[cyclopentane-1′,7-imidazo[4,5-f]indol]-6(3H)-one] | 100 to 10000 nM | – |
| CC1(C)CC(=O)Nc2cc3nc(-c4cc(C5CC5)[nH]n4)[nH]c3cc21 [Example 25, 2-(5-Cyclopropyl-1H-pyrazol-3-yl)-8,8-dimethyl-1,5,7,8-tetrahydro-imidazo[4,5-g]quinolin-6-one] | – | 10 to 500 nM |
| CCc1[nH]nc(-c2nc3cc4c(cc3[nH]2)C(C)(C)C(=O)N4)c1C [Example 19, 2-(5-Ethyl-4-methyl-1H-pyrazol-3-yl)-7,7-dimethyl-5,7-dihydro-1H-imidazo[4,5-f]indol-6-one] | – | 10 to 500 nM |
| CC(C)c1cc(-c2nc3cc4c(cc3[nH]2)C(C)(C)C(=O)N4)[nH]n1 [Example 22, 2-(5-Isopropyl-2H-pyrazol-3-yl)-7,7-dimethyl-5,7-dihydro-1H-imidazo[4,5-f]indol-6-one] | 100 to 10000 nM | – |
| CC1(C)C(=O)Nc2cc3nc(-c4cc(C5CC5)[nH]n4)[nH]c3cc21 [Example 21, 2-(5-Cyclopropyl-1H-pyrazol-3-yl)-7,7-dimethyl-5,7-dihydro-1H-imidazo[4,5-f]indol-6-one] | – | 10 to 500 nM |
| CCN1C(=O)C(C)(C)c2cc3[nH]c(-c4cc(SC)[nH]n4)nc3cc21 [Example 45, 5-Ethyl-7,7-dimethyl-2-(5-methylsulfanyl-1H-pyrazol-3-yl)-5,7-dihydro-1H-imidazo[4,5-f]indol-6-one] | 100 to 10000 nM | – |
| O=C1Nc2cc3nc(-c4cc(C5CC5)[nH]n4)[nH]c3cc2C12CCCC2 [Example 43, 2-(5-Cyclopropyl-2H-pyrazol-3-yl)-spiro-5,7-dihydro[cyclopentane-1′,7-imidazo[4,5-f]indol]-6(3H)-one] | 100 to 10000 nM | – |
| CCCc1cc(-c2nc3cc4c(cc3[nH]2)N(C)C(=O)C4(C)C)[nH]n1 [Example 14, 5,7,7-Trimethyl-2-(5-propyl-2H-pyrazol-3-yl)-5,7-dihydro-3H-imidazo[4,5-f]indol-6-one] | 1200 nM | – |
| CCN1C(=O)C(C)(C)c2cc3nc(-c4cc[nH]n4)[nH]c3cc21 [Example 32, 5-Ethyl-7,7-dimethyl-2-(1H-pyrazol-3-yl)-5,7-dihydro-3H-imidazo[4,5-f]indol-6-one] | 100 to 10000 nM | – |
| CCN1C(=O)C(C)(C)c2cc3nc(-c4cc(C(F)(F)F)[nH]n4)[nH]c3cc21 [Example 39, 5-Ethyl-7,7-dimethyl-2-(5-trifluoromethyl-1H-pyrazol-3-yl)-5,7-dihydro-3H-imidazo[4,5-f]indol-6-one] | 100 to 10000 nM | – |
| CC1(C)C(=O)Nc2cc3nc(-c4cc(C(F)(F)F)n[nH]4)[nH]c3cc21 [Example 38, 7,7-Dimethyl-2-(5-trifluoromethyl-2H-pyrazol-3-yl)-5,7-dihydro-1H-imidazo[4,5-f]indol-6-one] | 10000 to 100000 nM | – |
| CCCc1cc(-c2nc3cc4c(cc3[nH]2)N(CC)C(=O)C4(C)C)[nH]n1 [Example 33, 5-Ethyl-7,7-dimethyl-2-(5-propyl-2H-pyrazol-3-yl)-5,7-dihydro-3H-imidazo[4,5-f]indol-6-one; compound with acetic acid] | 100 to 10000 nM | – |
